In PubChem BioAssay (NCI):
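1) Cells in 96-well plates. 2) Compound, 48 h, 5 concentrations. 3) Linear interpolation between surrounding doses. 4) Unreached endpoint = highest concentration. The concentration for 50% growth inhibition is given as GI50. TGI is the concentration that stops growth completely.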

Tests used:
Experiment in all cases: NCI tumour cell line growth inhibition, 48 h
RPMI-8226 leukemia = test system: RPMI-8226 leukemia
LXFL 529 NSCLC = test system: LXFL 529 NSCLC
T-47D breast = test system: T-47D breast
P388/ADR leukemia = test system: P388/ADR leukemia
SN12K1 renal = test system: SN12K1 renal
P388 leukemia = test system: P388 leukemia
RXF-631 renal = test system: RXF-631 renal

SMILES	TGI (RPMI-8226 leukemia) [µM]	TGI (T-47D breast) [µM]	also measured
Cc1cc(=O)oc2c1cc(OCC(=O)OCCN1CCCCC1)c1occ(C)c12	> 100	–	TGI (LXFL 529 NSCLC): > 100 µM
CCOC(=O)NC	> 100	> 100	–
Cn1c(Sc2ccc(-c3cccnc3)n2C)ccc1-c1cccnc1	23.4	44.2	–
O=C1c2ccccc2C(=O)c2c1ccc(C(=O)O)c2-c1ccc2ccccc2c1	83.8	18.1	–
CCCCCCCCCCCCCCCCOCC(COP(=O)([O-])OCC[n+]1ccc(N(C)C)cc1)OCC (centres undefined)	17.1	37.3	–
COc1cc2c(cc1Oc1ccc(OC)c3c1CC1c4c(cc(OC)c(OC)c4-3)CCN1C)CC1c3c(cc(OC)c(OC)c3-2)CCN1C (centres undefined)	3.97	–	TGI (P388/ADR leukemia): 5.71 µM; TGI (SN12K1 renal): 2.54 µM; TGI (P388 leukemia): 4.02 µM
NC(=O)Nc1cc(O)ccc1N=Nc1ccc(S(=O)(=O)Nc2ccccn2)cc1	> 100	–	TGI (LXFL 529 NSCLC): > 100 µM
COc1cc(C)c2c(=O)c3c(oc2c1)C(=O)c1c(O)c(OC)cc(O)c1C3=O	4.48	–	TGI (P388/ADR leukemia): > 50 µM; TGI (SN12K1 renal): 2.69 µM; TGI (P388 leukemia): > 50 µM
COc1ccc(CC2c3cc(OC)c(OC)c(OC)c3CC[N+]2(C)C)cc1Oc1ccc(CC2c3cc4c(c(OC)c3CCN2C)OCO4)cc1 (centres undefined)	–	> 100	–
c1ccc2sc(SCN(C3CCCCC3)C3CCCCC3)nc2c1	–	49.5	–
COc1c(Cl)cc(S(=O)O)cc1Cl	–	–	TGI (LXFL 529 NSCLC): > 100 µM
COc1cc(O)c2c(c1)C(=O)c1cc(C)cc(O)c1C2=O	> 100	–	TGI (RXF-631 renal): > 100 µM; TGI (LXFL 529 NSCLC): > 100 µM
O=C(O)C1=NNC(C(=O)O)=NN1	> 100	–	TGI (LXFL 529 NSCLC): > 100 µM
Fc1ccc(-c2nnc3sc(COc4ccccc4Cl)nn23)cc1Cl	–	> 100	GI50 (T-47D breast): 32.8 µM
CC(CO)(CO)Nc1ncnc2ccccc12	–	> 100	–
Nc1nnc(N)n1NC(=O)C(=O)Nc1ccc([N+](=O)[O-])cc1	> 100	–	TGI (RXF-631 renal): > 100 µM
CC1(O)CC23CC1CCC2(C)C12CCCC(C)(C(=O)O1)C2CC3O (centres undefined)	–	> 100	–
